Species: Rattus norvegicus
Assay: DrugMatrix - Regimen: Daily Repeat
Format: toxicity, organism-based, Sprague-Dawley
Design: regimen Daily Repeat, gender Male, age 6-8 weeks
Settings: in vivo, sc, route subcutaneous, […]; for ABSOLUTE BASOPHIL / ABSOLUTE EOSINOPHIL / ABSOLUTE LYMPHOCYTE / ABSOLUTE MONOCYTE / ABSOLUTE SEGMENTED NEUTROPHIL / BASOPHIL / EOSINOPHIL / ERYTHROCYTE COUNT / HEMATOCRIT / HEMOGLOBIN / LEUKOCYTE COUNT / LYMPHOCYTE / MEAN CORPUSCULAR HEMOGLOBIN / MEAN CORPUSCULAR HEMOGLOBIN CONCENTRATION / MEAN CORPUSCULAR VOLUME / MONOCYTE / NEUTROPHIL / NUCLEATED RED BLOOD CELLS / PLATELET COUNT: tissue Blood; for ALANINE AMINOTRANSFERASE / ALBUMIN / ALKALINE PHOSPHATASE / ASPARTATE AMINOTRANSFERASE / BLOOD UREA NITROGEN / CARBON DIOXIDE / CHLORIDE / CHOLESTEROL / CREATINE PHOSPHOKINASE / CREATININE / GLUCOSE / LACTATE DEHYDROGENASE / LIPASE / PHOSPHORUS / POTASSIUM / SODIUM / TOTAL BILIRUBIN / TOTAL PROTEIN / URIC ACID: tissue Plasma
[1] = 0 mg/kg, 72 h, dose level Control, time 3 day
[2] = 0 mg/kg, 120 h, dose level Control, time 5 day
[3] = 50 mg/kg, 72 h, dose level Low, time 3 day

CCCCOC(=O)c1ccc(N)cc1 [BUTAMBEN]
ABSOLUTE BASOPHIL [1]: 0 CELLS/uL | ABSOLUTE EOSINOPHIL [1]: 42.67 CELLS/uL | ABSOLUTE LYMPHOCYTE [1]: 10202 CELLS/uL | ABSOLUTE MONOCYTE [1]: 261.5 CELLS/uL | ABSOLUTE SEGMENTED NEUTROPHIL [1]: 2193.83 CELLS/uL | BASOPHIL [1]: 0% | EOSINOPHIL [1]: 0.33% | ERYTHROCYTE COUNT [1]: 5.63 x10E6/uL | HEMATOCRIT [1]: 35.35% | HEMOGLOBIN [1]: 13.07 G/DL | LEUKOCYTE COUNT [1]: 12.7 x10E3/uL | LYMPHOCYTE [1]: 81.17% | MEAN CORPUSCULAR HEMOGLOBIN [1]: 23.23 pg | MEAN CORPUSCULAR HEMOGLOBIN CONCENTRATION [1]: 36.97 G/DL | MEAN CORPUSCULAR VOLUME [1]: 62.82 fL | MONOCYTE [1]: 2% | NEUTROPHIL [1]: 16.5% | NUCLEATED RED BLOOD CELLS [1]: 0 /100WBC | PLATELET COUNT [1]: 1180.33 x10E3/uL | ALANINE AMINOTRANSFERASE [1]: 48.67 u/L | ALBUMIN [1]: 4.08 G/DL | ALKALINE PHOSPHATASE [1]: 360.67 u/L | ASPARTATE AMINOTRANSFERASE [1]: 85.5 u/L | BLOOD UREA NITROGEN [1]: 17.83 mg/dL | CARBON DIOXIDE [1]: 26.17 mmol/L | CHLORIDE [1]: 101.83 MEQ/L | CHOLESTEROL [1]: 71 mg/dL | CREATINE PHOSPHOKINASE [1]: 515.17 u/L | CREATININE [1]: 0.22 mg/dL | GLUCOSE [1]: 192.5 mg/dL | LACTATE DEHYDROGENASE [1]: 214.67 u/L | LIPASE [1]: 8.5 u/L | PHOSPHORUS [1]: 12.95 mg/dL | POTASSIUM [1]: 6.39 MEQ/L | SODIUM [1]: 142.38 MEQ/L | TOTAL BILIRUBIN [1]: 0.18 mg/dL | TOTAL PROTEIN [1]: 5.95 G/DL | URIC ACID [1]: 1.83 mg/dL | ABSOLUTE BASOPHIL [2]: 0 CELLS/uL | ABSOLUTE EOSINOPHIL [2]: 188.5 CELLS/uL | ABSOLUTE LYMPHOCYTE [2]: 12360.83 CELLS/uL | ABSOLUTE MONOCYTE [2]: 64.33 CELLS/uL | ABSOLUTE SEGMENTED NEUTROPHIL [2]: 1986.33 CELLS/uL | BASOPHIL [2]: 0% | EOSINOPHIL [2]: 1.33% | ERYTHROCYTE COUNT [2]: 5.52 x10E6/uL | HEMATOCRIT [2]: 35.82% | HEMOGLOBIN [2]: 13.25 G/DL | LEUKOCYTE COUNT [2]: 14.6 x10E3/uL | LYMPHOCYTE [2]: 84.5% | MEAN CORPUSCULAR HEMOGLOBIN [2]: 24.05 pg | MEAN CORPUSCULAR HEMOGLOBIN CONCENTRATION [2]: 36.98 G/DL | MEAN CORPUSCULAR VOLUME [2]: 64.97 fL | MONOCYTE [2]: 0.5% | NEUTROPHIL [2]: 13.67% | NUCLEATED RED BLOOD CELLS [2]: 0 /100WBC | PLATELET COUNT [2]: 1297.83 x10E3/uL | ALANINE AMINOTRANSFERASE [2]: 51.17 u/L | ALBUMIN [2]: 4.08 G/DL | ALKALINE PHOSPHATASE [2]: 393.17 u/L | ASPARTATE AMINOTRANSFERASE [2]: 111 u/L | BLOOD UREA NITROGEN [2]: 18.17 mg/dL | CARBON DIOXIDE [2]: 25 mmol/L | CHLORIDE [2]: 105.17 MEQ/L | CHOLESTEROL [2]: 65.5 mg/dL | CREATINE PHOSPHOKINASE [2]: 911.5 u/L | CREATININE [2]: 0.21 mg/dL | GLUCOSE [2]: 183 mg/dL | LACTATE DEHYDROGENASE [2]: 189 u/L | LIPASE [2]: 8.33 u/L | PHOSPHORUS [2]: 12.78 mg/dL | POTASSIUM [2]: 6.05 MEQ/L | SODIUM [2]: 144.57 MEQ/L | TOTAL BILIRUBIN [2]: 0.25 mg/dL | TOTAL PROTEIN [2]: 5.83 G/DL | URIC ACID [2]: 1.58 mg/dL | ABSOLUTE BASOPHIL [3]: 0 CELLS/uL | ABSOLUTE EOSINOPHIL [3]: 143.67 CELLS/uL | ABSOLUTE LYMPHOCYTE [3]: 12216.67 CELLS/uL | ABSOLUTE MONOCYTE [3]: 393.33 CELLS/uL | ABSOLUTE SEGMENTED NEUTROPHIL [3]: 2079.67 CELLS/uL | BASOPHIL [3]: 0% | EOSINOPHIL [3]: 1% | ERYTHROCYTE COUNT [3]: 5.53 x10E6/uL | HEMATOCRIT [3]: 33.47% | HEMOGLOBIN [3]: 12.13 G/DL | LEUKOCYTE COUNT [3]: 14.83 x10E3/uL | LYMPHOCYTE [3]: 82.33% | MEAN CORPUSCULAR HEMOGLOBIN [3]: 21.93 pg | MEAN CORPUSCULAR HEMOGLOBIN CONCENTRATION [3]: 36.23 G/DL | MEAN CORPUSCULAR VOLUME [3]: 60.5 fL | MONOCYTE [3]: 2.67% | NEUTROPHIL [3]: 14% | NUCLEATED RED BLOOD CELLS [3]: 0 /100WBC | PLATELET COUNT [3]: 1210 x10E3/uL | ALANINE AMINOTRANSFERASE [3]: 56.33 u/L | ALBUMIN [3]: 3.9 G/DL | ALKALINE PHOSPHATASE [3]: 352 u/L | ASPARTATE AMINOTRANSFERASE [3]: 93.33 u/L | BLOOD UREA NITROGEN [3]: 15.67 mg/dL | CARBON DIOXIDE [3]: 27 mmol/L | CHLORIDE [3]: 103.67 MEQ/L | CHOLESTEROL [3]: 75.33 mg/dL | CREATINE PHOSPHOKINASE [3]: 408 u/L | CREATININE [3]: 0.24 mg/dL | GLUCOSE [3]: 178.67 mg/dL | LACTATE DEHYDROGENASE [3]: 150.67 u/L | LIPASE [3]: 8.33 u/L | PHOSPHORUS [3]: 12.53 mg/dL | POTASSIUM [3]: 5.89 MEQ/L | SODIUM [3]: 144.57 MEQ/L | TOTAL BILIRUBIN [3]: 0.2 mg/dL | TOTAL PROTEIN [3]: 5.57 G/DL | URIC ACID [3]: 1.43 mg/dL

From ChEMBL document CHEMBL3885881, “DrugMatrix”
